Assay [1] deals with algae of genus Nannochloropsis ("W2"). As to the kind of experiment: DCMU incubation and fluorescence under low actinic light, Nannochloropsis culture. It is filed as cell-based. The following applies: 100 nanomolar DCMU. The method, then:
Typically, DCMU is instantaneously efficacious at concentrations in the 0.1 micromolar to 50 micromolar range. The inventors herein discovered that algae of the genus Nannochloropsis, however, generally requires higher concentrations and relatively lengthy incubation periods for the effects of DCMU to take place.
(§1) FIG. 3 (“FIG. 3”) is a graph of relative fluorescence rise versus percentage contaminating species for the algae of genus Chlorella as referred to in FIG. 2. In FIG. 3, the impact of the actinic light is seen in the relative fluorescence rise to the maximum fluorescence yield observed during an intense saturating pulse, during the low level actinic light treatment for the Chlorella culture, the same rise being absent from the Nannochloropsis culture.

In another assay the test system is algae of genus Chlorella. The experiment in a line: DCMU and fluorescence under low actinic light, Chlorella culture. The class given is cell-based. The following applies: 100 nanomolar DCMU.
Text: as §1

For assay [2], the system named is weed algae of genus Tetraselmis. As to the kind of experiment: DCMU administered to 1 million liter open pond raceway systems with Nannochloropsis cultures invaded by Tetraselmis. It is filed as in vivo. The method, then:
The inventors utilized commercially available DCMU at a field research site to kill the persistent weed algae of genus Tetraselmis. DCMU was administered to six 1 million liter open pond raceway systems wherein Nannochloropis cultures were cultivated at a density of approximately 270 milligrams per liter. Tetraselmis invasion in the ponds is shown in FIG. 6, and is quantified in Table 2 as a percentage of mass. The higher the percentage of mass, the higher the Tetraselmis invasion. The six 1 million liter open pond raceway systems are denoted in FIG. 6, Table 1, and Table 2 as Pond A1, Pond A2, Pond A3, Pond B1, Pond B2, and Pond B3.
Consequently, as little as 100 grams, and as much as 400 grams, were needed. The commercial DCMU source was 90% DCMU by mass, so 90 grams and 360 grams effective amounts of DCMU (M.W. 233 amu) in 1 million liters of volume converts to DCMU concentrations of 0.38 micromolar and 1.55 micromolar, respectively.
Note “D” denotes the dumping of the contents of the pond.

Setting [3] is: corrected for 90% DCMU by mass, 1 million liters.

Experimental findings from patent US20130130909A1, “DCMU RESISTANCE IN NANNOCHLOROPSIS” (priority 2011, published 2013) are described below.

As for `CN(C)C(=O)Nc1ccc(Cl)c(Cl)c1` [DCMU, 3-(3,4-dichlorophenyl)-1,1-dimethylurea], in assay [1] (24 hour incubation period), the “resistance of Nannochloropsis to DCMU” value is reported as “completely resistant”. Moreover, the “effect of actinic light on PSII reaction centers in presence of DCMU, Nannochloropsis” value in assay [1] (50 micromolar quanta m^-2 s^-1 actinic light, FIG. 1) is given as “barely has an effect”. Also, the “effect of actinic light on PSII reaction centers in presence of DCMU, Chlorella” value in the assay on algae of genus Chlorella (50 micromolar quanta m^-2 s^-1 actinic light, FIG. 2) is listed as “completely closes PSII reaction centers”. Moreover, the “herbicidal effect on Chlorella” value in the assay with algae of genus Chlorella (Chlorella isolated from an invaded pond) is recorded as “strong herbicidal effect”. In assay [2] (90 grams in 1 million liters), the “effective DCMU concentration, lowest” value came out at 0.38 µM. Moreover, the “effective DCMU concentration, highest” value in assay [2] (360 grams in 1 million liters) is 1.55 µM. For the same compound, in assay [2] (setting [3]), the “effective amount of DCMU, highest” value came to 360 grams and the “effective amount of DCMU, lowest” value turned out to be 90 grams.
